# ChEMBL document CHEMBL1132892, “Cyclic thioether peptide mimetics as VCAM-VLA-4 antagonists” (Bioorg Med Chem Lett, 2000)
# How the values were obtained:
# [1] = molecular target: T1, Integrin alpha-4 (Homo sapiens, UniProt P13612); test: Compound was evaluated for VCAM-VLA-4 antagonistic activity using Ramos cell assay; type: functional, cell-based
# T1 sequence (P13612 whole entry): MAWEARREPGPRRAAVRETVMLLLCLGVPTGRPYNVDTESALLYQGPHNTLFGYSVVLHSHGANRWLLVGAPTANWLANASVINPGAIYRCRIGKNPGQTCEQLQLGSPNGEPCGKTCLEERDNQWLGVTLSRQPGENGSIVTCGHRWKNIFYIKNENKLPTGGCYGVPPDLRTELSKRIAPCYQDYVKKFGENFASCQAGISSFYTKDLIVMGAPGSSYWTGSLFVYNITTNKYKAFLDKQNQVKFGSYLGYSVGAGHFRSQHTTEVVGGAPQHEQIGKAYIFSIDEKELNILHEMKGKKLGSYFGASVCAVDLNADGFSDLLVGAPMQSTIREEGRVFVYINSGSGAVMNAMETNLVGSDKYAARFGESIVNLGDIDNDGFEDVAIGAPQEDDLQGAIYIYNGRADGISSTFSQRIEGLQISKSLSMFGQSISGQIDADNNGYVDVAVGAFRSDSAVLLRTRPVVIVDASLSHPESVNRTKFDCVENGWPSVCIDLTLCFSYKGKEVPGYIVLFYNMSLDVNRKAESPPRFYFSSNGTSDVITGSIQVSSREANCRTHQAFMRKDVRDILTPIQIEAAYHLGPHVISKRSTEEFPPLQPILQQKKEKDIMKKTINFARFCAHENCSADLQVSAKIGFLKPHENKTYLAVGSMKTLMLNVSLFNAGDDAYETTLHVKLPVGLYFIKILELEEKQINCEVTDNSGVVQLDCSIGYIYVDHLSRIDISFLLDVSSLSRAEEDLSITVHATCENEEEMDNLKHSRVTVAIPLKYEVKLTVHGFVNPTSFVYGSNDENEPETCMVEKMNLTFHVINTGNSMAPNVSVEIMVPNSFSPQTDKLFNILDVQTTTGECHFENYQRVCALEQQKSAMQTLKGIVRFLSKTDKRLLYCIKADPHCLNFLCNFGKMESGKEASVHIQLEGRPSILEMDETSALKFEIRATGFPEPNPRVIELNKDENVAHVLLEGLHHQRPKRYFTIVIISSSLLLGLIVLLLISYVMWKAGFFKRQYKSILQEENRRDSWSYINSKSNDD
# [2] = molecular target: T1, Integrin alpha-4; test: Compound was evaluated for VCAM-VLA-4 antagonistic activity using solid phase assay; type: functional
compound,measurement,setting,value
CC(=O)N1CCC(c2ccc(O)cc2)C1C(=O)N[C@H]1CSSC[C@@H](C(=O)O)NC(=O)C2(CCCC2)CCNC1=O (some centres not stated),IC50,[1],1.5 nM
same,IC50,[2],0.1 nM
CC(=O)N1CCC(c2ccc(O)cc2)C1C(=O)N[C@H]1CSCC[C@@H](C(=O)O)NC(=O)C2(CCCC2)CCNC1=O (some centres not stated),IC50,[1],20 nM
same,IC50,[2],0.5 nM
CC(=O)N1CCC(c2ccc(O)cc2)C1C(=O)N[C@H]1CCSCC[C@@H](C(=O)O)NC(=O)C2(CCCC2)CCNC1=O (some centres not stated),IC50,[2],35 nM
CC(=O)N1CCC(c2ccc(O)cc2)C1C(=O)N[C@H]1CCSC[C@@H](C(=O)O)NC(=O)C2(CCCC2)CCNC1=O (some centres not stated),IC50,[1],220 nM
same,IC50,[2],2.7 nM
